Our source for the IC50 values is patent US10479795B2 (Incyte Corporation, priority 2016, dated 2019).

For assay [1], the target named is PI3Kδ (p110δ/p85α) Recombinant Human Protein (Homo sapiens (Human), UniProt O00329). The assay is described as follows: PI3Kδ Scintillation Proximity Assay. In kind it is biochemical. In short, it runs like this:
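Assay conditions: 2 μM ATP (radiolabelled), 20 μM PIP2, 3.4 nM PI3Kδ, 20 mM MOPS pH 6.7 with 10 mM MgCl2, 5 mM DTT, 0.03% CHAPS, 2 h at room temperature. Signal from bead-captured 33P product; IC50 versus solvent control.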
(In general: In a scintillation proximity assay essentially only radioactivity close to the scintillant gives light.)

In assay [2] the test system is Phosphorylated Ribosomal Protein S6 (RPS6). Put plainly: THP-1 RPS6 ELISA Assay. In kind it is cell-based, Human. As to conditions: THP-1 cells, read-out: PI3Kγ_THP1_RPS6_ELISA IC50. How it is done:
To measure the Phosphorylated Ribosomal Protein S6 (RPS6) in cell lysates, THP-1 cells (Human Acute Monocytic Leukemia) are purchased from ATCC (Manassas, Va.) and maintained in RPMI with 10% FBS (Gibco/Life Technologies, Carlsbad, Calif.). For the assay, THP-1 cells are serum starved overnight in RPMI, then plated in RPMI (2×10^5 cells/well in 90 μL) into 96-well flat-bottom tissue culture treated plates (Corning, Corning, N.Y.), in the presence or absence of a concentration range of test compounds. Covered plates are incubated for 2 hours at 37° C., 5% CO2 then treated with or without 10 nM MCP-1 (MYBioSource, San Diego, Calif.) for 15 minutes at 37° C., 5% CO2. Plates are centrifuged at 1600 RPM and supernatants are removed. Cells are lysed in Lysis Buffer (Cell Signaling, Danvers, Mass.) with Protease Inhibitor (Calbiochem/EMD, Germany), PMSF (Sigma, St Louis Mo.), HALTS (Thermo Fisher, Rockford, Ill.) for 30 min on wet ice. Cell lysates are frozen at −80° C. before testing. The lysates are tested in the Human/Mouse/Rat Phospho-RPS6 ELISA (R&D Systems, Inc. Minn, Minn.). The plate is measured using a microplate reader (SpectraMax M5 —Molecular Devices, LLC Sunnyvale, Calif.) set to 450 nm with a wavelength correction of 540. IC50 determination is performed by fitting the curve of inhibitor percent inhibition versus the log of the inhibitor concentration using the GraphPad Prism 5.0 software.
On the technique in general: In an ELISA, binding on a coated surface is turned into a signal by an enzyme label.

Assay [3] has as its target PI3Kγ (p110γ) Recombinant Human Protein (Homo sapiens (Human), UniProt P48736). The assay is described as follows: PI3K-γ Scintillation Proximity Assay. The conditions noted are these: read-out: PI3Kγ IC50. The class given is biochemical. In short, it runs like this: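 Radiometric SPA readout: […] bound to WGA beads after overnight shaking, IC50 derived from % activity of DMSO control. Reaction used human p110γ, 2 μM ATP, 20 μM PIP2, pH 6.7 MOPS buffer with MgCl2, DTT, CHAPS, 2% DMSO, room temperature.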

The structures appear in SMILES notation. Where a name gives a salt, the structure may show the parent alone. Read-outs that look alike come from different tables or passages of the source.

Chain of PI3Kγ (p110γ) Recombinant Human Protein (P48736 whole entry): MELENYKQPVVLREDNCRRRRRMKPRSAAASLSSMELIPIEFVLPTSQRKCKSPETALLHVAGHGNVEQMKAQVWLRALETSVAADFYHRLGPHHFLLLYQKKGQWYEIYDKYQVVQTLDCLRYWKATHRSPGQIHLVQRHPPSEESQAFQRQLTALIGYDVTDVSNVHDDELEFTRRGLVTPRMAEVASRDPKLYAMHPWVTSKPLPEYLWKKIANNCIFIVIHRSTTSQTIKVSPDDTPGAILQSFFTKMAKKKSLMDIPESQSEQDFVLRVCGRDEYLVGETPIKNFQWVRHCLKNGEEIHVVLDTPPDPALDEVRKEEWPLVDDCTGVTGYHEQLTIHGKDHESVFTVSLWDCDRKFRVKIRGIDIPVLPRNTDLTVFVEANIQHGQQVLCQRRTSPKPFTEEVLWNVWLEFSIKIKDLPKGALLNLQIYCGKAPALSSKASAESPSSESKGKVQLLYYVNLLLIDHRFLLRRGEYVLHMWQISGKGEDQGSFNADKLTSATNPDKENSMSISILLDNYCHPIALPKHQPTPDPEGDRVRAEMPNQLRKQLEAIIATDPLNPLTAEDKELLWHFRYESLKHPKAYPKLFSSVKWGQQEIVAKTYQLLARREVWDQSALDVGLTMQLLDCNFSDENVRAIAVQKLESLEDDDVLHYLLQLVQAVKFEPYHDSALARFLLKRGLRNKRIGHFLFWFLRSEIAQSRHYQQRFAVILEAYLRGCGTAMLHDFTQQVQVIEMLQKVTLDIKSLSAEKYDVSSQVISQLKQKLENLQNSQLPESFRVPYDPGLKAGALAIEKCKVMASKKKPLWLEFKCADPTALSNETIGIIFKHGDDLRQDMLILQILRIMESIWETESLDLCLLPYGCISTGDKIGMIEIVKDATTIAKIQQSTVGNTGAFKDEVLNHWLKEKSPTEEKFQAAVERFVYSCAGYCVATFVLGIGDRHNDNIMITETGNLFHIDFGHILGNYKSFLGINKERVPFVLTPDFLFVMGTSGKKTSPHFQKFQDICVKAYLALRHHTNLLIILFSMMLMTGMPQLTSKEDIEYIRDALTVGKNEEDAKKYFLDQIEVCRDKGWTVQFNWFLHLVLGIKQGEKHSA
Chain of PI3Kδ (p110δ/p85α) Recombinant Human Protein (O00329 whole entry): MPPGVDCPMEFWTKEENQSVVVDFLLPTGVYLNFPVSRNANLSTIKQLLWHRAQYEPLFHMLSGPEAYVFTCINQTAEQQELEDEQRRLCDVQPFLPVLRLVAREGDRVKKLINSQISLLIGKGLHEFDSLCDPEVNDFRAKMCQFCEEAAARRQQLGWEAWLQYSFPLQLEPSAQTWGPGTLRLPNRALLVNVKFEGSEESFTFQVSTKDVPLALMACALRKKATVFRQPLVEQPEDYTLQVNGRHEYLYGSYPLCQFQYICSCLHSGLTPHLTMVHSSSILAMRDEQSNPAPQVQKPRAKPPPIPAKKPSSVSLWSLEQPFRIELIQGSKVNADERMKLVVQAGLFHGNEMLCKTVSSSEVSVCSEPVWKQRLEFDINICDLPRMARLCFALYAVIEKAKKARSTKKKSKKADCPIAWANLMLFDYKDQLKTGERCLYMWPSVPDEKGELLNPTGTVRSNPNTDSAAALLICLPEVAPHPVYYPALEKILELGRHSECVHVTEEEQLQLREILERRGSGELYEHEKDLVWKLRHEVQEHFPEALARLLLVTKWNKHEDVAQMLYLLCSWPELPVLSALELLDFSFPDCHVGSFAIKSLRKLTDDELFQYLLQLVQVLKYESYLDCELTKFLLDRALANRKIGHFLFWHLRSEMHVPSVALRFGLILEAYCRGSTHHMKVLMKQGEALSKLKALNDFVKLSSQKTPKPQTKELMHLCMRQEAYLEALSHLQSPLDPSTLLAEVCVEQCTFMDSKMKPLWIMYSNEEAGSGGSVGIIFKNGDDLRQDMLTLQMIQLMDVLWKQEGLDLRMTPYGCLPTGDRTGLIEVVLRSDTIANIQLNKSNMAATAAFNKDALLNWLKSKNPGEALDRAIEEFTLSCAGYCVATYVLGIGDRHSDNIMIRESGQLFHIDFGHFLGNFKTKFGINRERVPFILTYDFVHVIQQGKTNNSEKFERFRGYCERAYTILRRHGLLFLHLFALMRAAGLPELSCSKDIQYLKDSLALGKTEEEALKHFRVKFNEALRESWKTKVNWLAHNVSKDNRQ
Chain of PI3Kδ (p110δ/p85α) Recombinant Human Protein (P27986 whole entry partner): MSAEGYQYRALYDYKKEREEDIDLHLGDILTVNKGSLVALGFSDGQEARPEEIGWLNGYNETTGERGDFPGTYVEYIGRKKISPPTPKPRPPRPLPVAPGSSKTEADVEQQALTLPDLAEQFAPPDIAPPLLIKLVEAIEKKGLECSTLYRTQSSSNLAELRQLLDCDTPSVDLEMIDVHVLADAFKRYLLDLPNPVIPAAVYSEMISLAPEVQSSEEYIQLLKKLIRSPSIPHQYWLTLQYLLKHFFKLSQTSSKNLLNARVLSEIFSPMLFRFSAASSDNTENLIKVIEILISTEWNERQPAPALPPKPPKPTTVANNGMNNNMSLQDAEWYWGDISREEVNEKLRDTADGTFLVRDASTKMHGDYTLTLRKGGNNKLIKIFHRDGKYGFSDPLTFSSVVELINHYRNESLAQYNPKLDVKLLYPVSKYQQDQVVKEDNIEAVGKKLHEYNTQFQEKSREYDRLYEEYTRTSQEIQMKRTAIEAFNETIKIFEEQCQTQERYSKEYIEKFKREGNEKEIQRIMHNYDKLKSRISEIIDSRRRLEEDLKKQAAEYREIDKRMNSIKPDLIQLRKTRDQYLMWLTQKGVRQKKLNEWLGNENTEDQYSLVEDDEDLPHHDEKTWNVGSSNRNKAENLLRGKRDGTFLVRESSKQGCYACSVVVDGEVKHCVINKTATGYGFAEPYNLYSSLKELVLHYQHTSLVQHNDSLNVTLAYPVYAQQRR

For `Cc1ccc(S(=O)(=O)N2CCCC(C)(CO)C2)cc1-c1cnc2c(N)nc(C(F)(F)F)cn12` (stereo not drawn) [Example 312, (1-((3-(8-Amino-6-(trifluoromethyl)imidazo[1,2-a]pyrazin-3-yl)-4-methylphenyl)sulfonyl)-3-methylpiperidin-3-yl)methanol], the IC50 is 100 to 500 nM in assay [1], 100 to 500 nM in assay [2] (Homo sapiens) and below 100 nM in assay [3].
In the case of `Cc1ccc(S(C)(=O)=O)cc1-c1cnc2c(N)nc(-c3cccc(OCC#N)c3)cn12` [Example 486, 2-(3-(8-Amino-3-(2-methyl-5-(methylsulfonyl)phenyl)imidazo[1,2-a]pyrazin-6-yl)phenoxy)acetonitrile trifluoroacetate], the IC50 in assay [1] is 100 to 500 nM; in assay [2] (Homo sapiens) it was 100 to 500 nM; in assay [3], below 100 nM.
Turning to `Cc1ccc(S(=O)(=O)N2CCCC(C#N)C2)cc1-c1cnc2c(N)nc(C(F)(F)F)cn12` (stereo not drawn) [Example 314, 1-((3-(8-Amino-6-(trifluoromethyl)imidazo[1,2-a]pyrazin-3-yl)-4-methylphenyl)sulfonyl)piperidine-3-carbonitrile], the IC50 in assay [1] is 100 to 500 nM; in assay [2] (Homo sapiens) it was 100 to 500 nM; in assay [3] it was below 100 nM.
Consider `COc1nccc(-c2cn3c(-c4cc(S(C)(=O)=O)ccc4C)cnc3c(N)n2)c1F` [Example 483, 6-(3-Fluoro-2-methoxypyridin-4-yl)-3-(2-methyl-5-(methylsulfonyl)phenyl)imidazo[1,2-a]pyrazin-8-amine trifluoroacetate], for which the IC50 is below 100 nM in assay [1], above 1000 nM in assay [2] (Homo sapiens) and below 100 nM in assay [3].
As to `[2H]C([2H])([2H])c1ccc(S(=O)(=O)NC23CC(CC#N)(C2)C3)cc1-c1cnc2c(N)nc(C)cn12` [Example 378, trifluoroacetate salt], the IC50 in assay [1] is 100 to 500 nM; in assay [2] (Homo sapiens) it was below 100 nM; in assay [3], below 100 nM.
With `Cc1c(F)cc(S(=O)(=O)N[C@H]2CC[C@H](CC#N)OC2)cc1-c1cnc2c(N)nc(C(F)(F)F)nn12` [Example 466, 3-(4-Amino-2-(trifluoromethyl)imidazo[2,1-f][1,2,4]triazin-7-yl)-N-((3S,6R)-6-(cyanomethyl)tetrahydro-2H-pyran-3-yl)-5-fluoro-4-methylbenzenesulfonamide], the IC50 in assay [1], in assay [2] (Homo sapiens) and in assay [3] was below 100 nM in each case.
As for `Cc1nc(N)c2ncc(-c3cc(S(=O)(=O)N[C@H]4CC[C@H](CC#N)OC4)c(Cl)cc3C)n2n1` [Example 389, 5-(4-amino-2-methylimidazo[2,1-f][1,2,4]triazin-7-yl)-2-chloro-N-((3S,6R)-6-(cyanomethyl)tetrahydro-2H-pyran-3-yl)-4-methylbenzenesulfonamide], the IC50 in assay [1], in assay [2] (Homo sapiens) and in assay [3] was below 100 nM in each case.
As to `Cc1ccc(S(=O)(=O)NC23CC(F)(C2)C3)cc1-c1cnc2c(N)ncnn12` [Example 98, 3-(4-Aminoimidazo[1,2-f][1,2,4]triazin-7-yl)-N-(3-fluorobicyclo[1.1.1]pentan-1-yl)-4-methylbenzenesulfonamide trifluoroacetate salt], the IC50 in assay [1] is 500 to 2000 nM; in assay [2], 100 to 500 nM; in assay [3], below 100 nM.
Taken in the same sequence, the figures for `Cc1ccc(S(=O)(=O)NC23CC(N4CCOCC4)(C2)C3)cc1-c1cnc2c(N)ncnn12` [Example 116, 3-(4-Aminoimidazo[1,2-f][1,2,4]triazin-7-yl)-4-methyl-N-(3-morpholinobicyclo[1.1.1]pentan-1-yl)benzenesulfonamide trifluoroacetate salt] were 500 to 2000 nM, 100 to 500 nM and below 100 nM.
Consider `Cc1ccc(S(=O)(=O)NC23CCC(C(C)O)(CC2)OC3)cc1-c1cnc2c(N)ncnn12` (racemic) [Example 432, 3-(4-Aminoimidazo[1,2-f][1,2,4]triazin-7-yl)-N-(1-(1-hydroxyethyl)-2-oxabicyclo[2.2.2]octan-4-yl)-4-methylbenzenesulfonamide trifluoroacetate salt (racemic)], for which the IC50 was 100 to 500 nM in assay [1], 100 to 500 nM in assay [2] (Homo sapiens) and below 100 nM in assay [3].
With `Cc1ccc(S(=O)(=O)N[C@H]2CC[C@H](CC#N)CC2)cc1-c1cnc2c(N)ncnn12` [Example 184, 3-(4-aminoimidazo[2,1-f][1,2,4]triazin-7-yl)-N-(trans-4-(cyanomethyl)cyclohexyl)-4-methylbenzenesulfonamide trifluoroacetate], the half-maximal inhibitory concentration (IC50) in assay [1], in assay [2] (Homo sapiens) and in assay [3] was below 100 nM each time.
As to `Cc1ccc(S(=O)(=O)NCC2CCS(=O)(=O)C2)cc1-c1cnc2c(N)ncnn12` (stereo not drawn) [Example 135, 3-(4-aminoimidazo[2,1-f][1,2,4]triazin-7-yl)-N-((1,1-dioxidotetrahydrothiophen-3-yl)methyl)-4-methylbenzenesulfonamide], the IC50 in assay [1] was 100 to 500 nM; in assay [2] (Homo sapiens), above 1000 nM; in assay [3], below 100 nM.
Taken in the same sequence, the figures for `Cc1ccc(S(=O)(=O)N[C@H]2CC[C@H](O)CC2)cc1-c1cnc2c(N)ncnn12` [Example 39, 3-(4-Aminoimidazo[2,1-f][1,2,4]triazin-7-yl)-N-(trans-4-hydroxycyclohexyl)-4-methylbenzenesulfonamide] were 100 to 500 nM, 100 to 500 nM and below 100 nM.
Taken in the same sequence, the figures for `Cc1ccc(S(=O)(=O)N(C)CCC#N)cc1-c1cnc2c(N)nc(C(F)(F)F)nn12` [Example 344, 3-(4-amino-2-(trifluoromethyl)imidazo[2,1-f][1,2,4]triazin-7-yl)-N-(2-cyanoethyl)-N,4-dimethylbenzenesulfonamide] were below 100 nM, 100 to 500 nM and below 100 nM.
Taken in the same sequence, the figures for `Cc1ccc(S(=O)(=O)NC23CC(Cn4ccnc4)(C2)C3)cc1-c1cnc2c(N)nc(C(F)(F)F)cn12` [Example 284, N-(3-((1H-imidazol-1-yl)methyl)bicyclo[1.1.1]pentan-1-yl)-3-(8-amino-6-(trifluoromethyl)imidazo[1,2-a]pyrazin-3-yl)-4-methylbenzenesulfonamide trifluoroacetate salt] were 100 to 500 nM, 100 to 500 nM and below 100 nM.
As to `Cc1ccc(S(=O)(=O)NC2CC2)cc1-c1cnc2c(N)ncnn12` [Example 64, 3-(4-Aminoimidazo[2,1-f][1,2,4]triazin-7-yl)-N-cyclopropyl-4-methylbenzenesulfonamide], the IC50 is above 2000 nM in assay [1], above 1000 nM in assay [2] (Homo sapiens) and below 100 nM in assay [3].
The like results for `COc1cccc(-c2cn3c(-c4cc(S(=O)(=O)N[C@H]5CC[C@H](O)CC5)ccc4C)cnc3c(N)n2)c1F` [Example 30, 3-[8-Amino-6-(2-fluoro-3-methoxyphenyl)imidazo[1,2-a]pyrazin-3-yl]-N-(trans-4-hydroxycyclohexyl)-4-methylbenzenesulfonamide] were, in that order, below 100 nM, below 100 nM and below 100 nM.
Taken in the same sequence, the figures for `Cc1ccc(S(=O)(=O)N2C(C)CCCC2CO)cc1-c1cnc2c(N)ncnn12` (stereo not drawn) [Example 157, (1-((3-(4-aminoimidazo[2,1-f][1,2,4]triazin-7-yl)-4-methylphenyl)sulfonyl)-6-methylpiperidin-2-yl)methanol] were 500 to 2000 nM, 500 to 1000 nM and below 100 nM.

Broadly, the IC50 is the concentration that inhibits the measured activity by half.
